Laboratory results: ChEMBL document CHEMBL1240296, “Pharmacological inhibitors of glycogen synthase kinase 3” (Trends Pharmacol Sci, 2004)

Legend:
[1] = Inhibition of GSK3
[2] = molecular target: Cyclin-dependent kinase 1/cyclin B (Homo sapiens, UniProt P06493); type: protein-complex assay
[3] = molecular target: Cyclin-dependent kinase 2/cyclin A (Homo sapiens, UniProt P24941); test: (§1) Inhibition of CDK2/cyclinA at 10 mM; type: protein-complex assay
[4] = molecular target: Glycogen synthase kinase-3 beta (Homo sapiens, UniProt P49841)
[5] = molecular target: Cyclin-dependent kinase 2/cyclin A (Homo sapiens) (UniProt P24941+P20248+P78396); test: as §1; type: protein-complex assay
[6] = molecular target: Glycogen synthase kinase-3 alpha (Homo sapiens, UniProt P49840)
[7] = molecular target: Glycogen synthase kinase-3 (Homo sapiens, UniProt P49840+P49841); type: protein assay

Chain of Glycogen synthase kinase-3 beta (P49841 whole entry): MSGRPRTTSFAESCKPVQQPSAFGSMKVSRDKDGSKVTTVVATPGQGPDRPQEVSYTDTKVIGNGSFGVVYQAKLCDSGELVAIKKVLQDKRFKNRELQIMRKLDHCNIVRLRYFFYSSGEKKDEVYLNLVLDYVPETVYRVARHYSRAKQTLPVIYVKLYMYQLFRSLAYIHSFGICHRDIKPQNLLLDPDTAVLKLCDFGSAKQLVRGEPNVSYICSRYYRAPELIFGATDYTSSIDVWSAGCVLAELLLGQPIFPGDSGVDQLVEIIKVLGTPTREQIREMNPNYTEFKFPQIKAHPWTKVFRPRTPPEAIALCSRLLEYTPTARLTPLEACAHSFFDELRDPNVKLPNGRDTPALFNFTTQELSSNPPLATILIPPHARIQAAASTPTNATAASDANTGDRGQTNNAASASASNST
Chain of Glycogen synthase kinase-3 alpha (P49840 whole entry): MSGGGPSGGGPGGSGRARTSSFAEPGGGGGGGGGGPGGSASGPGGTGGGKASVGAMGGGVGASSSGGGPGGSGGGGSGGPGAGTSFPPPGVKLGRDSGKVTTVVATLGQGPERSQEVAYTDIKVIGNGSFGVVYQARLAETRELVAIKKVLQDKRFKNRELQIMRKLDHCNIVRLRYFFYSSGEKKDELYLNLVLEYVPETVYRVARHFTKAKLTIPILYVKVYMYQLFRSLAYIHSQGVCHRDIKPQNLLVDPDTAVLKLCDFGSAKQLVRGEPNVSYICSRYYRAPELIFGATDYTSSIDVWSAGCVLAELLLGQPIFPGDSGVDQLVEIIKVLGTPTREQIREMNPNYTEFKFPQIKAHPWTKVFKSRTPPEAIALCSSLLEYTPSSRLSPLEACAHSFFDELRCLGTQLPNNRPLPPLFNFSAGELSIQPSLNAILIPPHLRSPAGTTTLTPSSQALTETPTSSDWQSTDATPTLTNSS

| IC50 [1] [nM] | IC50 [2] [nM] | Structure (SMILES) | other results |
| --- | --- | --- | --- |
| 5 |  | O=Nc1c(-c2c(O)[nH]c3ccccc23)[nH]c2ccccc12 [INDIRUBIN-3-MONOXIME] |  |
|  | 550 | Cn1cc(C2=C(c3ccc(Cl)cc3Cl)C(=O)NC2=O)c2ccccc21 [SB-216763] |  |
|  | > 10000 | Ic1cccc(CSc2nnc(-c3ccncc3)o2)c1 |  |
| 650 |  | CCCCc1c(-c2ccc(O)cc2)[nH]c2nccnc12 [ALOISINE A] |  |
|  | > 10000 | Cn1sc(=O)n(Cc2ccccc2)c1=O |  |
| 1000 | 600 | NC1N=Nc2nc3ccccc3nc21 (configuration not stated) |  |
|  | 900 | O=C1NC(=O)C(c2ccccc2[N+](=O)[O-])=C1Nc1ccc(O)c(Cl)c1 |  |
| 450 |  | CN1CC[C@H](c2c(O)cc(O)c3c(=O)cc(-c4ccccc4Cl)oc23)[C@H](O)C1 [ALVOCIDIB] |  |

Continued, compound first:

| Structure (SMILES) | IC50 [1] [nM] | IC50 [2] [nM] | other results |
| --- | --- | --- | --- |
| CC(C)c1c(-c2ccc(Cl)cc2)[nH]c2nccnc12 | 750 | 850 |  |
| Nc1nonc1-n1nnc(-c2nnc(-c3ccncc3)[nH]2)c1CN1CCCCC1 |  |  | IC50 [3]: > 250000 nM |
| O=C1NC(=O)C(c2cccc(Cl)c2)=C1Nc1ccc(Cl)c(C(=O)O)c1 |  |  | IC50 [3]: > 10000 nM |
| COc1cccc(-n2ncc3c(N/N=C/c4ccncc4)ncnc32)c1 [GW784752X] |  |  | IC50 [4]: 16 nM |
| CN(C)CCC(=O)Nc1n[nH]c2nnc(-c3ccccc3)cc12 |  |  | inhibition [5]: 90% |
| Nc1nc(NCCNc2ncc(-c3ncc[nH]3)c(-c3ccc(Cl)cc3Cl)n2)ccc1[N+](=O)[O-] |  | 3700 | IC50 [6]: 0.65 nM |
| Nc1cccc(-c2cc3c(Oc4cccc(O)c4)ncnc3[nH]2)c1 |  |  | IC50 [4]: 30 nM |
| O=C1NC(=O)C2=C1c1cn(c3ncccc13)CCOCCOCCOCCOCCn1cc2c2cccnc21 |  |  | IC50 [4]: 34 nM |
| CN[C@@H]1C[C@H]2O[C@@](C)([C@@H]1OC)n1c3ccccc3c3c4c(c5c6ccccc6n2c5c31)C(=O)NC4 [STAUROSPORINE] | 15 |  |  |
| CN1CCN(c2ccc(NCCNc3ccc([N+](=O)[O-])c(N)n3)nc2-c2ccc(Cl)cc2Cl)C(=O)C1 |  |  | IC50 [7]: 4 nM |
| OCCCNc1cc(-c2ccnc(Nc3cccc(Cl)c3)n2)ccn1 | 10 |  |  |
| Cn1cc(C2=C(c3cn(CCCSC(=N)N)c4ccccc34)C(=O)NC2=O)c2ccccc21 [BISINDOLYLMALEIMIDE IX] |  |  | IC50 [4]: 3 nM |
| CN(C)CCCn1cc(C2=C(c3c[nH]c4ccccc34)C(=O)NC2=O)c2ccccc21 [GF-109203] |  | 2300 | IC50 [4]: 190 nM |
| COc1ccc2c(c1)/C(=C/c1cnc[nH]1)C(=O)N2 [SU-9516] | 330 |  |  |
| O=C1NC(=O)C2=C1c1cn(c3ncccc13)CCCC1=CC=C(CCCn3cc2c2cccnc23)S1 |  |  | IC50 [4]: 36 nM |
